How the values were obtained:
[1] = tested on: human glioblastoma; settings: 12.5 mg/kg/4 days; cited from earlier work
[2] = tested on: P388 cells; settings: in vitro, free vs liposome-encapsulated vs nanoparticular taxol; cited from earlier work
[3] = tested on: P388 leukemia; settings: implanted P388 leukemia; cited from earlier work
[4] = dilution of Cremophor/alcohol solutions with physiological salt solution; cited from earlier work
[5] = Tolerability in MaTu-bearing nude mice (toxic deaths, body weight change, hemotoxicity); type: in vivo, Ncr:nu/nu female mice; settings: i.p., 12.5 mg/kg/inj., treatment d 10-13
Text: |Animals: Ncr:nu/nu female

[6] = tested on: P388; settings: 12.5 mg/kg/4 days; free vs liposomal; cited from earlier work
[7] = tested on: microtubuli; settings: cited from earlier work
[8] = tested on: B16 melanoma; settings: implanted B16 melanoma; cited from earlier work
[9] = tested on: human breast tumors; settings: cited from earlier work
[10] = cited from earlier work

Row | Compound | decrease in tumor growth [1] | growth inhibition of P388 cells [2] | antineoplastic activity [3] | stability in physiological salt solution [4] | BWC (%) d10-13 [5] | Toxic deaths (d): day of death ([5]; 8 nude mice) | Toxic deaths (d): number ([5]; 8 nude mice) | therapeutic effectiveness on P388 in vivo [6] | depolymerization of microtubuli [7] | arrangement and bundling of microtubuli ([7]; during the whole of the cell cycle) | polymerization of microtubuli ([7]; from tubuli dimers) | antineoplastic activity [8] | antineoplastic activity [9] | toxicities observed in man [10]
1 | CC(=O)O[C@H]1C(=O)[C@@]2(C)[C@H]([C@H](OC(=O)c3ccccc3)[C@]3(O)C[C@H](OC(=O)[C@H](O)[C@@H](NC(=O)c4ccccc4)c4ccccc4)C(C)=C1C3(C)C)[C@]1(OC(C)=O)CO[C@@H]1C[C@@H]2O [Taxol] | significant decrease in tumor growth | inhibited equally by all three forms of the drug | clear antineoplastic activity | not more than 24 hours | -1% | 16 days | 1 | comparable in their therapeutic effectiveness | stabilizes the microtubuli by inhibiting their depolymerization | abnormal arrangement and bundling of microtubuli | promotes the polymerization of microtubuli | clear antineoplastic activity | clear antineoplastic activity | –
2 | polyethoxylated castor oil [Cremophor] | – | – | – | – | – | – | – | – | – | – | – | – | – | increased formation of chylomicrons

Reference: patent US6090955A (priority 1994, dated 2000)
